Reference: publication PMC10641814 (Journal of Medicinal Chemistry, 2023)

How the values were obtained:
5-HT3R = biological target: T1, 5-HT3R (Cavia porcellus, UniProt O70212); experiment: Ex vivo guinea pig ileum contractility, serotonin-induced; conditions: 15 min incubation
T1 construct: from tissue; host or cells: guinea pig ileum
T1 sequence (O70212 20-490): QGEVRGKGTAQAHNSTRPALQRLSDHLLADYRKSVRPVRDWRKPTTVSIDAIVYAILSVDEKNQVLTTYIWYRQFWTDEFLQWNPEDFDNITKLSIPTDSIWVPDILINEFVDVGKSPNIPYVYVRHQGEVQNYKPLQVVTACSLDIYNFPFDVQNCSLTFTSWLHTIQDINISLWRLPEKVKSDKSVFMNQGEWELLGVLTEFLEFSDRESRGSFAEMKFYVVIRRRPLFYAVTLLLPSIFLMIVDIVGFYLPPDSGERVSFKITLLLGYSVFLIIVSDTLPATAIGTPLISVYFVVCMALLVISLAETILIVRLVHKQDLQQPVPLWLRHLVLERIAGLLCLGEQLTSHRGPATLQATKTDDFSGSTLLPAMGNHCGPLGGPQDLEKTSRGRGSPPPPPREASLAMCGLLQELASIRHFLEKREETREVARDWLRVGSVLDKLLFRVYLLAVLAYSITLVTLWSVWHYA

human 5-HT1A = biological target: T2, human 5-HT1A (Homo sapiens, UniProt P08908); experiment: 5-HT1AR binding ([3H]-8-OH-DPAT), HEK293; conditions: read-out: serotonin 5-HT1A % inhibition at 1 microM
T2 construct: expressed in transfected cells
T2 sequence (P08908 1-422): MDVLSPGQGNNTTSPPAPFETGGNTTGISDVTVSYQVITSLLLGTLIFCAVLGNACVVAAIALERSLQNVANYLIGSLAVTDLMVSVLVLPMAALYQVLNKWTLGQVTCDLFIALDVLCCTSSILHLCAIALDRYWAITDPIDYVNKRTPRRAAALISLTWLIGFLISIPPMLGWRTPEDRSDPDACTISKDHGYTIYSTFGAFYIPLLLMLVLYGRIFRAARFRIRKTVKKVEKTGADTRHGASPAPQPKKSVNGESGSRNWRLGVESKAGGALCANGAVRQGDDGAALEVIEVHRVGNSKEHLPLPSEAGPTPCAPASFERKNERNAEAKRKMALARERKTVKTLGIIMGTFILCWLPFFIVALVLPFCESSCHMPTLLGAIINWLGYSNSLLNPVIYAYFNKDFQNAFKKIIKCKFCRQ
Experimental: 3. Selectivity screen of PZ-1922
For membrane preparation,
EDTA and 1 mM dithiothreitol.
The composition of the assay buffers was
reader (PerkinElmer, USA).
The results were expressed as the %
www.eurofinsdiscovery.com.

[1] = tested on: oAβ25–35-induced memory deficits in rats; experiment: oAβ25–35-induced memory deficits in T-maze test in rats; assay type: in vivo, rat
Experimental: For the AD model, adult male Sprague–Dawley rats (Janvier Lab., France) weighing 260–280 g (8 weeks) at the beginning of the experiments were housed 1 week before experiments in a standard animal facility of the University of Montpellier (CECEMA, registration number E34-172-23) (12/12 h light/dark cycle with lights on at 07:00; 21 ± 1 °C, food and water ad libitum). All experiments, including sacrifices, were performed in conscious rats between 09:00 and 12:00, during the diurnal period of the circadian rhythm. Male has been preferred over female because the latter may present a confounding factor of the estrous cycle, a parameter that needs to be systematically controlled. Animal procedures were conducted in strict adherence to the European Union Directive of 2010 (2010/63/EU). The National French Animal Welfare Committee and the local committee at the University of Montpellier approved all protocols (authorization: CEEA-LR-12160). All efforts were made to minimize the number of animals used, potential pain, suffering, and distress.
As previously detailed,[37],[64] to induce the acute model of AD (oAβ25–35 model), rats were divided into three groups. One group had no surgery (Naive group), a second set of animals received an intracerebroventricular (icv) injection of incubated scrambled peptide (negative control groups—10 μg/rat—Sc), and a third set received an icv injection of oAβ25–35 (AD groups—10 μg/rat—Aβ). The animals were anesthetized with an intraperitoneal (ip) injection of a mixture of ketamine and xylazine (80 and 10 mg/kg b.w., respectively). Scrambled peptide and oAβ25–35 were injected directly into the lateral ventricles at a rate of 2 μL/min using a David-Kopf stereotaxic apparatus (coordinates of injection: AP −1 mm, L ±1.5 mm, DV −3.5 mm).
1—A curative approach: This treatment was started 1 week after the induction of amyloid toxicity (icv injection of oAβ25–35) and consisted of 2 ip injections (1.5 mg/kg per injection) per day for 1 week. On day 14, animals were subjected to a behavioral memory test (T-maze) and sacrificed on day 15 by decapitation.
2—A preventive approach: This treatment was started at the same time as the induction of amyloid toxicity and consisted of implanting ip, and during the same anesthetic procedure necessary for the icv injection of oAβ25–35, an osmotic pump (Alzet-EML2, Charles-River, France) which continuously delivered the molecules for 1 week at the dose of 3 mg/kg/day. On day 7, animals were submitted to a behavioral memory test (T-maze) and sacrificed on day 8 by decapitation.
As previously reported, the T-maze test was used to rapidly assess cognitive ability in rats, especially the short-term memory deficits, when performed in two successive sessions.[37],[38],[64],[65] The T-maze consisted of two short arms (A and B), extending from a longer alley (C) and enclosed with high walls. The test involved two trials, separated by 1 h. During the training session, one short arm (B) was closed. Rats were placed at the end of the long alley, allowed to visit the maze for 10 min, and then returned to their home cage. […] The number of visits and time spent in each arm were measured. The results were expressed as the ratio of the time spent in the initially closed novel arm, over the time spent in the previous arm, and as a ratio of the number of entries into the novel arm over the familiar one. […]

With `Cl.Clc1cccc(Cn2ccc3c(N4CCNCC4)nc4ccccc4c32)c1` [PZ-1922, 1-(3-Chlorobenzyl)-4-(piperazin-1-yl)-1H-pyrrolo[3,2-c]quinoline Hydrochloride] the “pD2' antagonism at 5-HT3R” value (5-HT3R) was 7.32, the “pD2' antagonism at 5-HT3R” value (5-HT3R; listed as 16 (PZ1922), 15 min) was 7,32 and the inhibition at 1 µM (human 5-HT1A) was 3%. For the same compound, the “effect on oAβ25–35-induced memory deficits in T-maze, curative treatment” value ([1]; 1.5 mg/kg ip twice a day for 7 days, started 1 week after icv oAβ25–35) was “effectively reversed the memory deficits”, the “effect on oAβ25–35-induced memory deficits in T-maze, preventive treatment” value ([1]; 3 mg/kg/day by ip osmotic pump for 1 week, concomitant with icv oAβ25–35) was “prevented the emergence of cognitive deficits” and the “In vivo effective dose, T maze test in rats after oAB administration, preventive treatment” value ([1]; preventive treatment) was 3 mg/kg.
